# Values quoted from earlier work in patent US20040131694A1, “Pharmaceutical composition for the medical treatment of the benign prostatic hyperplasia, its preparation method and its therapeutic application” (H.P.B. S.A., priority 2002, published 2004).
# Tested on: Bladder outlet obstruction due to Benign Prostatic Hyperplasia
# [1] = Up to 24 weaks of treatment, Tammela and Kontturi 1993
structure (smiles),measurement,setting,value
CC(C)(C)NC(=O)[C@H]1CC[C@H]2[C@@H]3CC[C@H]4NC(=O)C=C[C@]4(C)[C@H]3CC[C@]12C [Finasteride],Daytime frequency,[1],1.4
same,Dysuria,[1],0.4
same,Hesitancy,[1],0.5
same,Intermittence,[1],0.7
same,Nocturia,[1],1.5
same,Prostatic specific antigen (ng. %),[1],2.9 ng. %
same,Prostatic volume (grs.),[1],35 gr.
same,Q max.,[1],10.3 mL/s
same,Residual urine volume (ml.),[1],76 cc
same,Sensation of incomplete Voiding,[1],0.9
same,Terminal dribbling,[1],0.4
same,Total points (I-PSS),[1],7.1 points
same,Urgency,[1],0.7
same,Weak stream,[1],0.6
same,Residual effect,treatment must be continuous,none
